# Read-outs that look alike come from different tables or passages of the source.
# Legend:
# [1] = biological target: T1, human AspH (His6-AspH315–758) (Homo sapiens, UniProt Q12797); test: SPE-MS AspH inhibition assay (hFX-CP101-119 substrate hydroxylation); assay type: biochemical; details: for inhibition at 20 µM / AspH inhibition at 20 μM: 20 μM fixed inhibitor, relative to DMSO and 2,4-PDCA controls; for Hill coefficient of AspH inhibition curves: dose-response curves of SPE-MS AspH inhibition assay; for remaining activity at 20 µM: 20 μM fixed inhibitor concentration
# T1 construct: N-Terminally His6-tagged human AspH315–758 (His6-AspH315–758) was produced in Escherichia coli BL21 (DE3) cells; made in house; host or cells: Escherichia coli BL21 (DE3), pET-28a(+) vector
# T1 sequence (Q12797 315-758): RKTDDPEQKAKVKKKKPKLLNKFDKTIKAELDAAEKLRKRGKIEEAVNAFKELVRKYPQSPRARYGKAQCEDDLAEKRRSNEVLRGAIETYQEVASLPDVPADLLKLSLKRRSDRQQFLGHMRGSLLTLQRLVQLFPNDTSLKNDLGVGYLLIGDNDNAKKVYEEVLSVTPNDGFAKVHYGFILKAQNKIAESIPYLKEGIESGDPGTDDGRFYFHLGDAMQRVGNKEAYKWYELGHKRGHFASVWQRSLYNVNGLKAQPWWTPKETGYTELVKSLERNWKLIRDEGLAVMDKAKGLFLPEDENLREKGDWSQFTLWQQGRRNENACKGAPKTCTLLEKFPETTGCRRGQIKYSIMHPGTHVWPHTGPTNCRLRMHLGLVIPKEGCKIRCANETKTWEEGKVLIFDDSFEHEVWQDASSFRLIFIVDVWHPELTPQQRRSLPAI
# His6-AspH315–758 = biological target: T2, His6-AspH315–758 (Homo sapiens, UniProt Q12797); test: AspH differential scanning fluorimetry (DSF) assay, melting temperature shift; assay type: binding; details: 40 μM inhibitor, 4 μM His6-AspH315–758, with respect to DMSO controls; for ΔTm at 40 µM: read-out: Tm-shift (ΔTm) of AspH
# T2 construct: A mixture of SYPRO orange (1‰v/v) and His6-AspH315–758 (4 μM) in 50 mM aqueous HEPES buffer; made in house; host or cells: Escherichia coli BL21 (DE3), pET-28a(+) vector
# T2 sequence (Q12797 315-758): T1 sequence (Q12797 315-758)
# Experimental: A mixture of SYPRO orange (1‰v/v) and His6-AspH315–758 (4 μM) in 50 mM aqueous HEPES buffer (pH 7.5, 150 mM NaCl, 50 μM NiCl2) was carefully pipetted into a 96-well VWR PCR-plate (38 μL per well). An inhibitor solution (0.8 mM in DMSO) or a negative control sample (pure DMSO) was added to each well (2 μL per well, final inhibitor concentration of 40 μM) and the resulting solutions were gently mixed using a pipette. The plate was sealed with optical tape (Bio-Rag, iCycler iQ), centrifuged (5 sec, 1000 rpm) and placed into a C1000Touch Thermal Cycler equipped with a CFX96 Real-Time System (Bio-Rad). The instrument was heated with a rate of 1 °C per cycle (starting at an initial temperature of 25 °C; 70 cycles total). Data were analyzed using Microsoft Excel and GraphPad Prism according to the literature.[107] DSF assays were performed in independent duplicates, each composed of technical duplicates (Supporting Fig. S4).
# Bcl-XL = details: fluorescence polarisation, 30 nM enzyme concentration; cited from earlier work
# [2] = 50 nM His6-AspH315–758, 1 μM hFX-CP101–119, 100 μM LAA, 3 μM 2OG, 2 μM FAS, 50 mM HEPES pH 7.5, 20 °C, read-out: IC50
# [3] = 50 nM His6-AspH315–758, 1 μM hFX-CP101–119, 100 μM LAA, 3 μM 2OG, 2 μM FAS, 50 mM HEPES pH 7.5, 20 °C
# [4] = read-out: IC50 at 10 μM substrate, 10 μM hFX-CP101–119 and 10 μM 2OG instead of 1 μM hFX-CP101–119 and 3 μM 2OG
# [5] = read-out: IC50 at 200 μM 2OG, 200 μM 2OG instead of 3 μM 2OG
# [6] = read-out: IC50 at 20 μM Fe(II), 20 μM Fe(II) instead of 2 μM Fe(II)
# [7] = AspH-inhibitor screening, 384-well Plate 1
# [8] = AspH-inhibitor screening, 384-well Plate 1, substrate conversion
# [9] = AspH-inhibitor screening, Plate 1-duplicate
# [10] = AspH-inhibitor screening, Plate 1-duplicate, substrate conversion
Compound,"Plate 1 (% inhibition) [1, 7] [%]","Plate 1 (% conversion) [1, 8] [%]","Plate 1-duplicate (% inhibition) [1, 9] [%]","Plate 1-duplicate (% conversion) [1, 10] [%]",other results
"O=C(O)c1ccnc(C(=O)O)c1 [2,4-PDCA, Pyridine-2,4-dicarboxylic acid, reference compound]",,,,,"IC50 [1, 2]: 20 ± 10 nM; inhibition at 20 µM [1, 3]: 100 ± 0.6%; IC50 [1, 4]: 20 ± 10 nM; IC50 [1, 5]: 100 ± 30 nM; ΔTm at 40 µM (His6-AspH315–758): 3.2 ± 0.4 °C"
"Cc1cc2c(C(C)C)c(O)c(O)c(C=O)c2c(O)c1-c1c(C)cc2c(C(C)C)c(O)c(O)c(C=O)c2c1O [(R)-Gossypol, reference compound]",,,,,"IC50 [1, 2]: 250 ± 10 nM; AspH inhibition at 20 μM [1, 3]: Complete suppression of AspH activity; inhibition at 20 µM [1, 3]: 101 ± 2.3%; IC50 [1, 4]: 330 ± 20 nM; IC50 [1, 6]: 260 ± 30 nM; IC50 [1, 5]: 250 ± 10 nM; IC50 (Bcl-XL): ~500 nM"
"CN(C)CC[C@H](CSc1ccccc1)Nc1ccc(S(=O)(=O)NC(=O)c2ccc(N3CCN(Cc4ccccc4-c4ccc(Cl)cc4)CC3)cc2)cc1[N+](=O)[O-] [ABT-737, reference compound]",,,,,"IC50 [1, 2]: 3380 ± 340 nM; IC50 [1, 4]: 2990 ± 350 nM; IC50 [1, 6]: 2920 ± 880 nM; IC50 [1, 5]: 4470 ± 1320 nM; ΔTm at 40 µM (His6-AspH315–758): 1.5 ± 0.1 °C"
"O=C(/C=C/c1cccc(S(=O)(=O)Nc2ccccc2)c1)NO [Belinostat, reference compound]",,,,,"IC50 [1, 2]: 7490 ± 1260 nM; AspH inhibition at 20 μM [1, 3]: 97.1 ± 0.2%; inhibition at 20 µM [1, 3]: > 90%; Hill coefficient of AspH inhibition curves [1]: < -2.0; IC50 [1, 4]: 4770 ± 100 nM; IC50 [1, 6]: 3100 ± 1440 nM; IC50 [1, 5]: 11200 ± 4000 nM; ΔTm at 40 µM (His6-AspH315–758): 0.1 ± 0.2 °C"
"CC1(C)CCC(c2ccc(Cl)cc2)=C(CN2CCN(c3ccc(C(=O)NS(=O)(=O)c4ccc(N[C@H](CCN5CCOCC5)CSc5ccccc5)c(S(=O)(=O)C(F)(F)F)c4)cc3)CC2)C1 [Navitoclax, reference compound]",,,,,"IC50 ([1]; 50 nM His6-AspH315–758, 1 μM hFX-CP101–119, 100 μM LAA, 3 μM 2OG, 2 μM FAS, 50 mM HEPES pH 7.5, 20 °C, listed as navitoclax, read-out: IC50): ~1000 nM; IC50 [1, 2]: 1030 ± 120 nM; remaining activity at 20 µM [1]: ~10%; inhibition at 20 µM [1, 3]: 90.1 ± 0.1%; IC50 [1, 4]: 1210 ± 40 nM; IC50 [1, 6]: 800 ± 420 nM; IC50 [1, 5]: 1330 ± 170 nM; ΔTm at 40 µM (His6-AspH315–758): -2.1 ± 0.3 °C"
O=P(O)(O)C(O)(Cn1ccnc1)P(=O)(O)O [Zoledronic acid],19.60,40.70,13.13,45.53,
"O=C(O)c1ccnc(C(=O)O)c1 [pyridine-2,4-dicarboxylic acid]",,,,,"Plate 1 (% inhibition) ([1]; 100 uM 2,4-PDCA controls, columns 23, 24, Plate 1): 101.14%; Plate 1-duplicate (% inhibition) ([1]; 100 uM 2,4-PDCA controls, columns 23, 24, Plate 1-duplicate): 99.94%"
AT 101,102.80,2.28,99.60,2.64,
AZ 3146,-12.15,55.36,4.56,,
AZD4547,-11.19,54.92,-5.75,54.89,
Bleomycin sulfate,98.37,4.32,96.60,4.13,
Mithramycin A [reference compound],,,,,Tm-shift (ΔTm) of AspH (His6-AspH315–758): 0.4 ± 0.2 °C
VX-11e,,,,,Plate 1 (% conversion) [1]: 33.84%; Plate 1 (% inhibition) [1]: 34.46%; Plate 1-duplicate (% conversion) [1]: 36.75%; Plate 1-duplicate (% inhibition) [1]: 30.84%

# Now from value to compound, other results behind:
"Plate 1 (% inhibition) [1, 7] [%]","Plate 1 (% conversion) [1, 8] [%]","Plate 1-duplicate (% inhibition) [1, 9] [%]","Plate 1-duplicate (% conversion) [1, 10] [%]",Compound,other results
97.05,4.94,97.31,3.78,"CC1(C)CCC(CN2CCN(c3ccc(C(=O)NS(=O)(=O)c4ccc(NCC5CCOCC5)c([N+](=O)[O-])c4)c(Oc4cnc5[nH]ccc5c4)c3)CC2)=C(c2ccc(Cl)cc2)C1 [Venetoclax, reference compound]","IC50 ([1]; 50 nM His6-AspH315–758, 1 μM hFX-CP101–119, 100 μM LAA, 3 μM 2OG, 2 μM FAS, 50 mM HEPES pH 7.5, 20 °C, listed as venetoclax, read-out: IC50): ~1400 nM; IC50 [1, 2]: 1400 ± 140 nM; remaining activity at 20 µM [1]: ~3%; inhibition at 20 µM [1, 3]: 97.2 ± 0.2%; selectivity for Bcl-2 over AspH ([1]; Bcl-2 inhibited more efficiently than AspH): ~ 1000 fold; Hill coefficient of AspH inhibition curves [1]: < -2.0; IC50 [1, 4]: 1570 ± 210 nM; IC50 [1, 6]: 1290 ± 240 nM; IC50 [1, 5]: 1520 ± 240 nM; ΔTm at 40 µM (His6-AspH315–758): 0.7 ± 0.3 °C"
0.04,49.73,0.58,51.75,Oc1nc(-c2ccc(C(F)(F)F)cc2)nc2c1CSCC2 [XAV-939],
11.20,44.58,-8.84,56.43,COc1cc2nccc(Oc3ccc(NC(=O)C4(C(=O)Nc5ccc(F)cc5)CC4)cc3)c2cc1OC [XL184_Cabozantinib],
-64.58,79.57,-62.78,83.18,COc1cc2c(Oc3ccc(NC(=O)C4(C(=O)Nc5ccc(F)cc5)CC4)cc3F)ccnc2cc1OCCCN1CCOCC1 [XL880 (Foretinib)],
3.96,47.92,7.32,48.41,COc1ccc(Cl)c(Nc2nc3ccccc3nc2NS(=O)(=O)c2cccc(NC(=O)C(C)(C)N)c2)c1 [XL-147],
-27.18,62.30,-43.09,73.41,COCCn1c2c([n+](Cc3cnccn3)c1C)C(=O)c1ccccc1C2=O [YM155],
-1.18,50.29,1.69,51.20,FC(F)c1nc2ccccc2n1-c1nc(N2CCOCC2)nc(N2CCOCC2)n1 [ZSTK474],
2.59,48.55,1.17,51.46,KX2-391,
